# Test results: patent US12539269B2, “Composition for blocking ultraviolet rays and fine dust, and preparation method thereof” (SANG HWANG MI-IN CO., LTD, priority 2020, dated 2026)
# Test system: HaCaT
# Experiment: Hyaluronic acid production amount (ELISA kit) in BP-stimulated keratinocytes
# Type: cell-based
# Method: In order to confirm whether the extract of a black hoof mushroom, a shiitake mushroom, and an oyster mushroom increased the hyaluronic acid (HA) production amount in HaCaT which is a keratinocyte, measurement was performed with an ELISA kit, and the results are shown in Table 7. In Table 7, N (normal) is a BP (benzo[α]pyrene)-unstimulated group, and C (control) is a BP (benzo[α]pyrene)-stimulated group.
structure (smiles),measurement,setting,value
O=C(O[C@@H]1Cc2c(O)cc(O)cc2O[C@@H]1c1cc(O)c(O)c(O)c1)c1cc(O)c(O)c(O)c1 [EGCG],Increase of hyaluronic acid production versus control group (increase rate),"10 μg/mL, versus control C 99.3 ng/mL",6.3 ng/mL
same,Hyaluronic acid production amount,"BP (benzo[α]pyrene)-stimulated, EGCG 10 μg/mL, N 198, C 99.3",105.6 ng/mL
